Values joined by “and” are separate entries in the source; they are usually repeats but may differ in a detail not shown here. Equal values may be shown once. Results filed as inconclusive are left out. Active and inactive are the calls of the source. The rule behind the calls is not given here.

The test deals with C. albicans CaCi-8 + fluconazole, Alamar Blue growth, 48 h. Description: resistant C. albicans growth inhibition with fluconazole, dose response, CaCi-8 strain, Alamar Blue fluorescence (AID 2423).
Regarding `O=Nc1c(O)n(Cc2ccc(Cl)c(Cl)c2)c2ccccc12`, the EC50 is 5900 nM.

Take `O=[N+]([O-])c1ccc2c(c1)[nH]c(=S)n2-c1ccccc1`: the EC50 is 648 nM. Then `Cc1cccc(NCc2ccc(O)c3ncccc23)c1C`, with 11800 nM; and `CCN(CC)c1ccc(/C=N/Nc2nc3ccccc3[nH]2)c(O)c1`, with 621 nM.

`COc1cccc(/C=N/Nc2ncnc3scc(-c4ccccc4)c23)c1O`: the concentration for a half-maximal effect (EC50) was 1190 nM.

Turning to `O=C1NC(=O)/C(=C/c2ccccc2Oc2ccc(Cl)cc2)S1`, the EC50 was > 16000 nM (inactive). Then `CCCCCCc1c(C)nc(-n2[nH]c(C)c(CCO)c2=O)[nH]c1=O`, with 1690 nM; and `Oc1c(C(c2ccccc2Cl)N2CCCC2)ccc2cccnc12` (stereo unspecified), with 1250 nM; and `COc1cc2c(cc1NC(=O)c1ccco1)CCCC2`, with 1060 nM. The figure for `COC(=O)c1c[nH]n2c(=O)c(Cc3ccc(F)cc3Cl)c(C)nc12` is 755 nM; for `O=C(Nc1ccccc1O)c1ccccc1O` it is 784 nM; for `NC(=O)c1c(NC(=O)c2ccco2)sc2c1CCC2` it is 1060 nM. The figure for `CCOc1ccc(-c2ccc(NS(=O)(=O)c3ccc([N+](=O)[O-])cc3)cc2)nn1` is 2650 nM; for `O=C(Oc1c(Cl)cc(Cl)c2cccnc12)c1cccc([N+](=O)[O-])c1` it is 444 nM; for `Cc1ccccc1-c1ccnc2[nH]n(-c3ccccc3)c(=O)c12` it is 14500 nM. `C=CCn1c(=N)n(CC(=O)c2cccc([N+](=O)[O-])c2)c2ccccc21`: the EC50 is > 16000 nM (inactive). Turning to `CCCCn1c(SCC(=O)Nc2cccc(OC)c2)nc2ccc(N3CCOCC3)cc2c1=O`, the EC50 was 3630 nM.

As to `Cc1ccccc1-n1c(=O)c(C#N)cc2c(=O)n3ccccc3nc21`, the EC50 is > 16000 nM (inactive). As to `COc1ccc(-c2nnc(NC(=O)c3ccc(F)cc3)o2)cc1`, the EC50 was 246 nM.

As for `Cc1ccc(O)c(C(=O)CC(=O)c2ccccc2Cl)c1`, the EC50 was 1570 nM. Then `COc1ccc(Cl)cc1C(Nc1cccnc1)c1ccc2cccnc2c1O` (stereo unspecified), with 1020 nM; and `CC(=O)N(Cc1ccc(F)cc1)C1=C(NCc2ccccc2)C(=O)c2ccccc2C1=O`, with 596 nM. Consider `CC(=O)NC(c1cccs1)c1cc([N+](=O)[O-])c2cccnc2c1O` (stereo unspecified), for which the EC50 is 1080 nM. Then `CCOc1ccc(NC(=S)NNC(=O)c2ccc(Br)cc2)cc1`, with 1560 nM. Then `N#C/C(C(N)=O)=c1/ccc2c(c1)N1C3=C(CCCC3)CC3CCCCC31N=2` (stereo unspecified), with 3120 nM; and `Cc1ccc(C)c(NC(=S)NNC(=O)c2csc(C)c2)c1`, with 704 nM. As for `O=C1c2ccccc2NC(c2ccc(-c3ccc(Br)cc3)o2)N1O` (stereo unspecified), the EC50 was 2120 nM. The figure for `CCOc1ccc(Nc2nc(NCC3CCCO3)c3ccccc3n2)cc1` (stereo unspecified) is 1980 nM; for `CC1CCC(C(C)C)C(OC(=O)Cn2c(-c3ccc(Br)cc3)[n+](C)c3ccccc32)C1` (stereo unspecified) it is 534 nM and 752 nM; for `Cc1cccc(C2CC3(CC(C)(C)NC(=S)N3)Oc3cc(O)ccc32)c1` (stereo unspecified) it is 3970 nM.

With `CCCCC(=O)NNC(=S)NC(=O)C(c1ccccc1)c1ccccc1`, the concentration giving a half-maximal response (EC50) is 1720 nM. The figure for `CCCCCCCSc1nc(N)cc(=O)[nH]1` is 5940 nM; for `CC(C)CCOc1cccc(OCC(=O)Nc2ccncc2)c1` it is 3220 nM; for `O=[N+]([O-])c1ccc(C2[C@H]3C(c4ccccc4)=NC4(CCCC4)N23)cc1` (stereo partly specified) it is > 15000 nM (inactive). In the case of `Cc1ccc(S(=O)(=O)/N=C(/c2ccccc2)N2CCOCC2)c(C)c1`, the EC50 was > 16000 nM (inactive). For the compound `O=C(O)CSc1nc(-c2ccc(Cl)cc2)nc2c1oc1ccccc12`, the EC50 is 1510 nM.

Consider `O=C1c2ccccc2NC(c2cn[nH]c2-c2ccc(Cl)cc2)N1O` (stereo unspecified), for which the EC50 was > 16000 nM (inactive). Then `CCCCC(=O)NC(c1ccc(N(CC)CC)cc1)c1ccc2cccnc2c1O` (stereo unspecified), with 468 nM.

With `COc1ccc(C2=NN(c3nc4ccccc4s3)C(=O)C2)cc1`, the EC50 was 5660 nM. Then `O=C(N/N=C/c1cc(Br)c(O)c(Br)c1)c1cc2c(ccc3ccccc32)o1`, with 915 nM; and `COc1cc(OC)cc(C(=O)Oc2c(CN3CCOCC3)cc(Cl)c3cccnc23)c1`, with 2620 nM; and `CC(=O)c1ncnn1CC(=O)c1ccc(Cl)cc1Cl`, with > 16000 nM (inactive). Consider `COc1ccc(NC(=O)NNC(=O)c2cc3ccccc3cc2O)cc1`, for which the EC50 was > 16000 nM (inactive).

As to `COc1cc(OC)cc(-c2nnc(Nc3nc4c(F)cccc4s3)o2)c1`, the EC50 is > 15000 nM (inactive). Then `CC(=O)c1ccc(NC(=O)Nc2cccc3ccccc23)cc1`, with > 15000 nM (inactive); and `COc1ccc(-c2nnc(NC(=O)c3ccc(S(=O)(=O)N4CCc5ccccc5C4)cc3)o2)cc1`, with 747 nM. The figure for `Cc1ccc(OCC(=O)N/N=C\c2c(C)[nH]n(-c3ccccc3)c2=O)c([N+](=O)[O-])c1` is 6600 nM; for `COc1ccc(-c2csc(N(CC3CCCO3)C(=O)c3ccco3)n2)cc1` (stereo unspecified) it is > 16000 nM (inactive).

Regarding `COc1ccc(C(=O)NN/C(C)=C/C(=O)C(F)(F)C(F)(F)C(F)(F)F)cc1`, the EC50 is 5050 nM.

In the case of `CN(C)S(=O)(=O)c1cccc(NC(=S)N/N=C/c2cc(Br)ccc2O)c1`, the concentration giving a half-maximal response (EC50) was 3840 nM. With `O=C(NNC(=S)NC(=O)C12CC3CC(CC(C3)C1)C2)c1ccncc1`, the EC50 was 4640 nM. Then `CCCCCc1ccc(OCCCC[n+]2ccccc2)c(CCCCC)c1`, with > 16000 nM (inactive). The figure for `C#CC[N+](C)(C)CCCCCCCCCCCC` is 8930 nM; for `O=C(Cc1ccc(O)cc1)N/N=C/c1cccnc1` it is > 16000 nM (inactive); for `C/C(=N\O)c1cc(Cl)cc(Cl)c1O` it is 3660 nM.

With `CC1=CC2=C(OC1N(C)C)c1cccc3cccc(c13)C2=O` (stereo unspecified), the EC50 was 9240 nM. Then `CCNC(=S)NNC(=O)c1cc(-c2ccc(OC)cc2)nc2ccccc12`, with 4380 nM; and `C=CCn1c(N)nc2ccccc21`, with 2720 nM; and `COc1ccc(CCNC(=O)c2c(O)c3ccccc3n(C)c2=O)cc1`, with > 15000 nM (inactive). Then `COc1cccc(C2/C(=C(/O)c3ccc(C)cc3)C(=O)C(=O)N2Cc2ccco2)c1` (stereo unspecified), with 7030 nM; and `C(C#CCCCCCCCCC[n+]1ccccc1)#CCCCCCCCCC[n+]1ccccc1`, with 3520 nM; and `CCc1ccc(C2c3[nH]c4ccccc4c3CCN2C(=O)c2ccc(=O)n(C)n2)cc1` (stereo unspecified), with 339 nM.

Turning to `CCn1c(/C=C/c2ccc([N+](=O)[O-])o2)nc2ccccc2c1=O`, the EC50 is under 120 nM.

Turning to `CCN=c1scc(-c2ccc3c(c2)NC(=O)CO3)n1N=C1CCCC1`, the EC50 is 7220 nM. With `Cc1ccc(C(=O)Nc2cccc(-c3cn4ccccc4n3)c2)cc1`, the EC50 is 326 nM. Then `Cc1onc(-c2ccccc2)c1C(=O)N/N=C(\N)COc1ccc(Cl)cc1`, with 14200 nM. Then `O=C(Nc1nnc(-c2ccccc2)o1)c1cc(-c2cccs2)nc2ccccc12`, with 901 nM.

With `O=C(O)c1ccccc1-c1ccccc1C(=O)Nc1cccc(-c2nc3ccccc3o2)c1`, the EC50 was 2240 nM. Then `COc1ccc(-c2nnc(Nc3nc4c(OC)cccc4s3)o2)c(OC)c1`, with 2710 nM; and `CC(=O)NC1CCCN(O)C(=O)/C=C(\C)CCOC(=O)C(NC(C)=O)CCCN(O)C(=O)/C=C(\C)CCOC(=O)C(NC(C)=O)CCCN(O)C(=O)/C=C(\C)CCOC1=O` (stereo unspecified), with 783 nM; and `O=C1/C(=C\c2cccnc2)SC(=S)N1C1CCS(=O)(=O)C1` (stereo unspecified), with > 16000 nM (inactive). Take `N#C/C(=C\c1ccc(O)c(O)c1)C(=O)Nc1cccc2ncccc12`: the EC50 was > 15000 nM (inactive).

With `Cc1ccc(C(=O)Nc2nc3ccccc3c(=O)s2)cc1`, the EC50 is 458 nM. Regarding `CCOc1ccc(-n2c(O)c(/C=N/Nc3nc(C)cc(C)n3)c3ccccc3c2=O)cc1`, the EC50 is > 15000 nM (inactive). Then `O=C(COc1ccccc1)NNC(=S)NC(=O)c1ccc(Cl)cc1Cl`, with 4840 nM; and `O=C(CSCc1cccc(CSCC(=O)Nc2ccccc2)n1)Nc1ccccc1`, with > 15000 nM (inactive); and `COc1ccc(/C=C(/NC(=O)c2ccccc2)c2nc3ccc(Cl)cc3[nH]2)cc1OC`, with 2660 nM. Regarding `Cc1csc2ncnc(NCCc3ccccn3)c12`, the EC50 is 6030 nM. The figure for `Cc1cccc(C2c3[nH]c4ccccc4c3CCN2C(=O)c2cc(-c3cccn3C)n[nH]2)n1` (stereo unspecified) is 1050 nM; for `Cc1cc(C)c(-c2cc(NC(=O)COC(=O)c3ccc(C#N)cc3)n(-c3ccccc3)n2)cc1C` it is 397 nM. Then `COc1ccc2c(c1OC)C(=O)N1N=C(c3ccc(O)cc3)CC21` (stereo unspecified), with > 15000 nM (inactive); and `COc1ccc(-c2n[nH]c(C)c2-c2cnn(-c3ccccc3)c2)c(O)c1`, with 9760 nM. For the compound `N/C(Cc1ccc(Cl)cc1Cl)=N\OC(=O)c1ccccc1`, the concentration for a half-maximal effect (EC50) is 833 nM. Then `COC(=O)[C@@H]1CCCN1Cc1nc(Cc2ccccc2F)no1`, with > 16000 nM (inactive); and `Cc1ccc(C)c(S(=O)(=O)N2CCN(Cc3ccc(O)c4ncccc34)CC2)c1`, with 2120 nM; and `Oc1ccc(Br)cc1/C=N/Nc1ccccn1`, with 2590 nM. Then `COc1ccc(N(CC(=O)Nc2ccccc2C(N)=O)S(=O)(=O)c2ccc(C)c([N+](=O)[O-])c2)cc1`, with 319 nM; and `Nc1ccc(C(=O)N/N=C\c2ccc(OC(=O)c3ccccc3Cl)cc2)cc1`, with 431 nM; and `Cn1c(NN=O)nc2ccccc21`, with > 15000 nM (inactive). Then `Cc1nn(C)c(C)c1/C=C/C(=O)c1ccc(Cl)cc1Cl`, with 1640 nM; and `CCn1c(NC(=O)c2cccs2)nc2ccccc21`, with 1280 nM; and `O=S(=O)(c1ccc(Cl)cc1)N1CCN(Cc2ccc(O)c3ncccc23)CC1`, with 2940 nM.

For `O=C(Nc1nc(=O)c2ccccc2s1)c1ccc(Cl)cc1`, the EC50 was > 15000 nM (inactive). The figure for `Cc1noc(NC(=O)c2ccc(Cl)c(Cl)c2)c1Cl` is > 15000 nM (inactive); for `COc1cccc(N=Nc2ccc3cccnc3c2O)c1` it is 430 nM; for `COc1ccc(C)cc1Nc1n[n+](-c2ccccc2)c(-c2ccc(N(C)C)cc2)s1` it is 3710 nM.

The values are drawn from PubChem BioAssay AID2423 (Broad Institute, 2010).
